Test: Solubility of Compound I in water
Type: physicochemical
Source text: Compositions prepared by routine methods, even if able to solubilize small amounts of Compound I, have proven unstable with Compound I falling out of solution, or in which Compound I is found to be subject to rapid degradation, or incompatible with a pharmaceutically acceptable capsule.

O=C(c1ccccn1)[C@]12Cc3cnn(-c4ccc(F)cc4)c3C=C1CCN(S(=O)(=O)c1ccc(C(F)(F)F)cc1)C2 [Compound I, (R)-(1-(4-fluorophenyl)-6-((4-(trifluoromethyl)phenyl)sulfonyl)-4,4a,5,6,7,8-hexahydro-1H-pyrazolo[3,4-g]isoquinolin-4a-yl)(pyridin-2-yl)methanone]
solubility in water: practically insoluble
